In ChEMBL document CHEMBL1148219, “Cytotoxic sesquiterpene lactones from Eupatorium lindleyanum” (J Nat Prod, 2004):
Values after ≈ are worked out from the molar mass of the structure shown. Active and inactive are the calls of the source. The rule behind the calls is not given here.

Assays:
A549 = test: Cytotoxicity against human A549 cells after 24 hrs; type: functional, cell-based; conditions: for IC50: A549, 24 h
P388 = test: Cytotoxicity against mouse P388 cells after 24 hrs; type: functional, cell-based; conditions: for IC50: P388, 24 h

Structure (SMILES) | Activity (A549) | Activity (P388) | IC50 (A549) [µg/mL] | IC50 (P388) [µg/mL]
C=C1C(=O)O[C@@H]2[C@H]3C(C)=C[C@@H](O)[C@H]3[C@@](O)(CO)C[C@@H](OC(=O)/C(C)=C/CO)[C@@H]12 | inactive | inactive |  | 
C=C1C(=O)O[C@H]2[C@H]1[C@H](OC(=O)/C(C)=C/CO)C[C@](O)(CO)[C@@H]1[C@H](O)[C@H]3O[C@@]3(C)[C@H]21 | inactive | inactive |  | 
C=C1C(=O)O[C@H]2[C@H]1[C@H](OC(=O)/C(C)=C/CO)CC(=C)[C@@H]1C=C[C@@](C)(O)[C@H]21 [EUPALINILIDE B] |  |  | 0.75 (≈ 2.08 µM) | 0.21 (≈ 0.583 µM)
C=C1C(=O)O[C@@H]2[C@H]3C(C)=C[C@H]4OC[C@@](O)(C[C@@H](OC(=O)/C(C)=C/CO)[C@@H]12)[C@@H]34 [EUPALINILIDE C] |  |  | 11 (≈ 29.2 µM) | 1.2 (≈ 3.19 µM)
C=C1C(=O)O[C@@H]2[C@H]3C(C)=C[C@@H](O)[C@H]3[C@@](O)(CCl)C[C@@H](OC(=O)/C(C)=C/C)[C@@H]12 [EUPALINILIDE E] |  | inactive | 0.028 (≈ 0.0706 µM) | 
COC(=O)C1=CC[C@@]23CC[C@@H]([C@@](C)(/C=C/C=C(\C)C(=O)O)OC2=O)[C@@]3(OC(C)=O)CC1 [PSEUDOLARIC ACID B] |  |  | 0.86 (≈ 1.99 µM) | 
